Data published in US5744462A, “Steroids useful as anti-cancer and anti-obesity agents” (Research Corporation Technologies, Inc., priority 1995, dated 1998).
Entries after “also recorded” stand apart in the source; their conditions may differ.

What was measured:
[1] = Anti-obesity action, body weight, female Balb/c mice; format: in vivo, mouse (female Balb/c); details: 0.25% in diet
Experimental: Female Balb/c (8 weeks old) mice were obtained from
the Jackson Laboratory and were housed in polycarbonate cages
(6 mice/cage) in animal quarters maintained at 24 ± 1° C. with
12 hours of light and 12 hours of darkness each day. One
week after arrival, the mice were placed on a diet containing
either DHEA, 8354, or without steroid. Animals were weighed

[2] = long term treatment, NZB mice; cited from earlier work
[3] = Liver weight after three weeks of diet treatment; format: in vivo, mouse (female Balb/c); details: 0.25% of diet
Experimental: Female Balb/c mice were housed in polycarbonate cages (6/mice/cage) in animal quarters maintained at 24°±1° C. with 12 hours of light and 12 hours of dark each day. The mice were placed on a diet containing either DHEA, 8354, A, B clofibrate or with no addition. Three weeks later the mice were killed, the livers were perfused with cold saline, weighed, and 5% liver homogenates were prepared for the determination of catalase activity by the spectrophotometric method of Luck (H. Luck, in Method in Enzyme Analysis, H. U. Bergmeyer, Ed. (Verlag Chemie, Weinheim/Bergstrasse, Germany, 1965)). Total protein was measured by the method of Lowry, et al. (O. H. Lowry, N. J. Rosebrough, A. L. Farr, R. J. Randall, J. Biol. Chem., 193, 265 (1951)).

[4] = test system: human lymphocytes (Epstein-Barr virus-induced transformation); details: cited from earlier work
[5] = cited from earlier work
[6] = mouse, in vivo; cited from earlier work
[7] = in vivo; cited from earlier work
[8] = test system: HeLa cell strain, TCRC-2; details: cited from earlier work
[9] = mouse, in vivo; cited from earlier work; remark: listed apart in the source
[10] = test system: mouse epidermal DNA (TPA stimulated 3H-thymidine incorporation); test: TPA stimulation of 3H-thymidine incorporation in epidermis, topical steroid; format: in vivo, mouse (A/J); details: for SPECIFIC ACTIVITY, TPA stimulated 3H-thymidine incorporation: no steroid 66, TPA alone 174
Experimental: Tumor promoters, such as TPA, stimulate hyperplasia and DNA synthesis when applied to the skin, and it is believed that this stimulation is an important step in the enhancement of tumorigenesis.
Incorporation of ^3 H-thymidine into A/J mouse epidermal DNA was determined as described in Pashko, L. L., Schwartz, A. G., Abou-Gharbia, M. and Swern, D. (1981), Inhibition of DNA synthesis in mouse epidermis and breast epithelium by dehydroepiandrosterone and related steroids, Carcinogenesis, 2, 717-721. Values are mean±SD for 3 separately treated mice in each group 20 hours after TPA application. DHEA or testosterone was added topically in 0.2 ml acetone one hour before TPA addition.

[11] = C3H mice, cited from earlier work

C[C@]12CC[C@H](O)CC1=CC[C@@H]1[C@@H]2CC[C@]2(C)C(=O)CC[C@@H]12 [DHEA, Dehydroepiandrosterone]
mean weekly weight ± S.D. ([1]; week 0, control 17.5 ± 1.4): 17.5 ± 1.5 grams | mean weekly weight ± S.D. ([1]; week 1, control 19.9 ± 1.2): 20.0 ± 0.9 grams | mean weekly weight ± S.D. ([1]; week 2, control 20.6 ± 1.0): 20.6 ± 0.9 grams | mean weekly weight ± S.D. ([1]; week 3, control 21.8 ± 0.8): 21.3 ± 1.3 grams | rate of development of the autoimmune anemia [2]: significantly inhibits the rate of development of the autoimmune anemia | LIVER WEIGHT ([3]; control 0.057 ± 0.006, DHEA p < 0.05, clofibrate p < 0.002 vs control): 0.074 ± 0.005 gm/gm body weight | liver weight, in words ([3]; mice): increased liver weight; also recorded: hepatomegaly | inhibition of Epstein-Barr virus-induced transformation [4]: inhibitors of Epstein-Barr virus-induced transformation of human lymphocytes | enzyme-positive premalignant foci in the liver ([5]; 0.6%, 20-22 weeks, after 4 injections of carcinogen): inhibited the formation of enzyme-positive premalignant foci in the liver | liver basophilic lesions, enzyme-negative ([5]; after carcinogen): promoted the development of liver basophilic lesions which were enzyme-negative | hypoglycemic effect [6]: marked hypoglycemic effect | estrogenic effect after prolonged administration [7]: evidence of an estrogenic effect after prolonged administration | growth inhibition of HeLa TCRC-2 [8]: particularly sensitive to DHEA-induced growth inhibition | reversal of growth inhibition by deoxynucleosides ([8]; mixture of deoxynucleosides of adenine, guanine, cytosine, thymine in medium): can be almost completely overcome | anti-hypercholesterolemic effect [9]: anti-hypercholesterolemic effect | SPECIFIC ACTIVITY, TPA stimulated 3H-thymidine incorporation ([10]; topical 100 ug): 52 ± 5.8 cpm/ug DNA | SPECIFIC ACTIVITY, TPA stimulated 3H-thymidine incorporation ([10]; topical 400 ug): 22 ± 6.5 cpm/ug DNA | effect on TPA stimulation of 3H-thymidine incorporation ([10]; topical, in words (Table 5)): abolishes this stimulation | weight gain on long-term treatment [11]: reducing weight gain without suppressing appetite | spontaneous breast cancer development ([11]; long-term treatment): markedly inhibits spontaneous breast cancer development
